Like-named read-outs stand apart in the source and are kept apart here.

Assay [1] relates to VSV. The assay is classed as cell-based, vesicular stomatitis virus (VSV).
The subject of assay [2] is HSV-1. Description: microbe, parasite or virus in culture. The assay is classed as cell-based, herpes simplex virus 1 (HSV-1). As to conditions: Human alphaherpesvirus 1, L929.
Assay [3] deals with EMCV. Description: microbe, parasite or virus in culture. The assay is classed as cell-based, encephalomyocarditis virus (EMCV). As to conditions: Cardiovirus A, A549.
Another assay concerns A549 cells. As to the kind of experiment: Transcriptome analysis (RNA-seq, GO, GSEA) of compound-treated A549 cells.
Assay [4] relates to HSV-1. Description: microbe, parasite or virus in culture. The class given is cell-based, herpes simplex virus 1 (HSV-1). Conditions: Human alphaherpesvirus 1, A549.
The test system of assay [5] is H1N1. As to the kind of experiment: Dose-response of infectivity, H1N1 in A549 cells (viral mRNA by qRT-PCR). The assay is classed as cell-based. Conditions: Influenza A virus, H1N1, A549. In general terms: Quantitative PCR measures a nucleic acid by following its amplification.
For assay [6], the system named is H1N1. Description: Dose-response of infectivity, H1N1 in L929 cells. Conditions: Influenza A virus. The assay is classed as cell-based.
In assay [7] the test system is EMCV. Description: microbe, parasite or virus in culture. The assay is classed as cell-based, encephalomyocarditis virus (EMCV). As to conditions: Cardiovirus A, L929.
Assay [8] deals with VSV. The class given is in vivo, C57/BL6J mice. Conditions: mice, VSV infection.
Assay [9] deals with H1N1. Description: H1N1 mRNA in A549 cells pretreated with NPC1 inhibitors. The assay is classed as cell-based, influenza virus A (H1N1). Conditions: A549 cells pretreated before infection.
Assay [10] has as its system VSV. The class given is cell-based, vesicular stomatitis virus (VSV). The source holds these as a separate data set.
Assay [11] concerns VSV. The assay is classed as cell-based, vesicular stomatitis virus (VSV). Conditions: A549 cells pretreated before infection.
The test system of assay [12] is H1N1. As to the kind of experiment: Antiviral effect in normal/serum-free medium during H1N1 infection of A549 cells. The class given is cell-based, influenza virus A (H1N1). As to conditions: serum-free conditions.
For a further assay, the target named is T1, NPC1 (Homo sapiens, UniProt O15118).
T1 sequence (O15118 23-1278): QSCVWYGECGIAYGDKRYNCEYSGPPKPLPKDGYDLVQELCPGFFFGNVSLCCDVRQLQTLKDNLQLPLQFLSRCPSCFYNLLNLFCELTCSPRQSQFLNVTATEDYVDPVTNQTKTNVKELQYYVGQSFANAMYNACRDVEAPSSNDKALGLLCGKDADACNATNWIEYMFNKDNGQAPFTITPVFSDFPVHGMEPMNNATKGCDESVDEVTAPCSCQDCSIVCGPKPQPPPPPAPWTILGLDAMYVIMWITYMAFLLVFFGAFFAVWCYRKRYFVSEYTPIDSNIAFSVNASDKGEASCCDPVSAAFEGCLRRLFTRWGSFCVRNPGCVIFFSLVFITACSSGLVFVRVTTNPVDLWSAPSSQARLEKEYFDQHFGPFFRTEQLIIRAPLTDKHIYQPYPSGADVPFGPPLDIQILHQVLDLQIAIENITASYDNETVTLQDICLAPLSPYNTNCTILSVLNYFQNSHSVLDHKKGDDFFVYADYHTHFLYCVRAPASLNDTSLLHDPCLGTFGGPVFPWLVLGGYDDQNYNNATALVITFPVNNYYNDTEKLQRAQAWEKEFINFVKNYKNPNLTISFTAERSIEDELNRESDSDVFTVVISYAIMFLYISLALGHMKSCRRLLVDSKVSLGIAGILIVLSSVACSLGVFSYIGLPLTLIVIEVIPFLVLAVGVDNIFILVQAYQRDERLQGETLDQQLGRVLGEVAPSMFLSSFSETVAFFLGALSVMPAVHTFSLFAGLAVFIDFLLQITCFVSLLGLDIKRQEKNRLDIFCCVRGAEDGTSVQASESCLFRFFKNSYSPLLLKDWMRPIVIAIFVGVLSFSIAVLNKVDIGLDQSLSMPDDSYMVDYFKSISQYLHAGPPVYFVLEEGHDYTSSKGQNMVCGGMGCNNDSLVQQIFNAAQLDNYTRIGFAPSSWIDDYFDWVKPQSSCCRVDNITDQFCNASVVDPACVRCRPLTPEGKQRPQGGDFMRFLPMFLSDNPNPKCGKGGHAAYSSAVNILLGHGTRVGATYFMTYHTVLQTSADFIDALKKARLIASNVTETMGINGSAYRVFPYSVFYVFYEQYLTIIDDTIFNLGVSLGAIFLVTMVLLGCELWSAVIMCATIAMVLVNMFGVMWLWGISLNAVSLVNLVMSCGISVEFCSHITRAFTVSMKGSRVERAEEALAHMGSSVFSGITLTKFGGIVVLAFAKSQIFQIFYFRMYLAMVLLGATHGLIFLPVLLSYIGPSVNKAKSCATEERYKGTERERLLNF
The assay is classed as binding. As to conditions: […]; read-out: SPR KD.

Take `COc1cc2c3cc1Oc1c(OC)c(OC)cc4c1[C@@H](Cc1ccc(O)c(c1)Oc1ccc(cc1)C[C@@H]3N(C)CC2)N(C)CC4` [Bbm, berbamine]: in the assay on VSV [1], the “VSV replication (VSV-G protein, immunoblotting)” value is “inhibited”. Besides, the EC50 in the assay on HSV-1 [2] turned out to be 360 nM; in the assay with EMCV [3] it was 107 nM; in the assay with HSV-1 [4], 3270 nM; in the assay with H1N1 [5], 606 nM; in the assay with H1N1 [6], 2650 nM; with EMCV [7], 1500 nM. The “GSEA NES, Response to virus” value in the assay on A549 cells (A549 cells, 10 µM, 24 h) amounted to 1.34. In addition, in the assay on A549 cells (A549 cells, 10 µM, 24 h), the “GSEA NES, Sterol metabolic process” value stood at 2.29.
For the compound `COc1ccc2cc1Oc1ccc(cc1)C[C@H]1c3c(cc4c(c3Oc3cc5c(cc3OC)CCN(C)[C@@H]5C2)OCO4)CCN1C` [Cep, cepharanthine], the “VSV replication (VSV-G protein, immunoblotting)” value with VSV [1] was “inhibited”. Also, the EC50 in the assay with HSV-1 [2] was 569 nM; with EMCV [3], 2090 nM; with HSV-1 [4], 3160 nM; in the assay with H1N1 [5], 110 nM; in the assay on H1N1 [6] it was 3840 nM; in the assay with EMCV [7], 998 nM. Moreover, the “GSEA NES, Innate immune response” value in the assay with A549 cells (A549 cells, 10 µM, 24 h) was determined as 1.25. Moreover, in the assay with A549 cells (A549 cells, 10 µM, 24 h), the “GSEA NES, Sterol metabolic process” value is listed as 2.19.
With `Cc1ccc2c(=O)c3cccc(CC(=O)O)c3oc2c1C` [DMXAA], in the assay with VSV [8], the “IL-6 level in serum” value is given as “markedly decreased” and the “TNF-α level in serum” value is recorded as “markedly decreased”.
On to `COc1ccc2cc1Oc1ccc(cc1)C[C@H]1c3cc(c(OC)cc3CCN1C)Oc1c(O)c(OC)cc3c1[C@H](C2)N(C)CC3` [Fan, fangchinoline], for which, in the assay on VSV [1], the “VSV replication (VSV-G protein, immunoblotting)” value is reported as “inhibited”. The EC50 in the assay on HSV-1 [2] came to 2320 nM; with EMCV [3], 821 nM; in the assay on HSV-1 [4], 2550 nM; in the assay on H1N1 [5] it was 794 nM; with H1N1 [6] it was 537 nM; with EMCV [7], 1360 nM. Besides, the “GSEA NES, Response to type I interferon” value in the assay on A549 cells (A549 cells, 10 µM, 24 h) was 2.27. The “GSEA NES, Sterol metabolic process” value in the assay on A549 cells (A549 cells, 10 µM, 24 h) is 2.04. Moreover, the “expression of antiviral immune-related genes” value in the assay on A549 cells (WT A549 cells, compared among Tet, Fan, Cep, Bbm) is recorded as “higher expression”.
`CCN(CC)CCO[C@H]1CC[C@@]2(C)C(=CC[C@@H]3[C@@H]2CC[C@]2(C)C(=O)CC[C@@H]32)C1` [U18666A]: in the assay on H1N1 [9], the H1N1 replication result is recorded as “effectively blocked”. The “antiviral effect on VSV entry” value in the assay with VSV [10] (MβCD pretreatment (cholesterol depleted)) is “abolished”; in the assay with VSV [10] (cholesterol supplementation using MβCD-cholesterol) it was “restored inhibition”. Further, in the assay on VSV [11], the VSV replication result was “effectively blocked”. Moreover, the “antiviral effect on H1N1 entry” value in the assay on H1N1 [12] is reported as “diminished”.
For `CN(C)CCCN1c2ccccc2CCc2ccccc21` [imipramine], the H1N1 replication entry in the assay with H1N1 [9] is listed as “effectively blocked”. Further, the VSV replication result in the assay on VSV [11] was “effectively blocked”.
Regarding `CCC(C)n1ncn(-c2ccc(N3CCN(c4ccc(OCC5COC(Cn6cncn6)(c6ccc(Cl)cc6Cl)O5)cc4)CC3)cc2)c1=O` (stereo not drawn) [itraconazole], the H1N1 replication result in the assay on H1N1 [9] was “effectively blocked”. The Kd on NPC1 was 8760 nM. For the same compound, in the assay with VSV [11], the VSV replication result is on record as “effectively blocked”.
As for `CC[C@@H]([C@H](C)O)n1ncn(-c2ccc(N3CCN(c4ccc(OC[C@@H]5CO[C@@](Cn6cncn6)(c6ccc(F)cc6F)C5)cc4)CC3)cc2)c1=O` [posaconazole], in the assay with H1N1 [9], the H1N1 replication entry is given as “effectively blocked”. The VSV replication result in the assay with VSV [11] is “effectively blocked”.

The term EC50 denotes the concentration that produces a half-maximal response. Low values mean greater potency, high ones weaker potency. In general, Kd refers to the free concentration of one partner at which half of the binding sites on the other are occupied at equilibrium, for simple one-to-one binding.

The values are drawn from PMC12416277, “Phytochemical alkaloids orchestrate immunometabolism against viral infections” (National Science Review, 2025).
